Assay results: ChEMBL document CHEMBL1201862, “PubChem BioAssay data set” (2004)
Activity calls are given as the source filed them.

How the values were obtained:
Beta-lactamase [1] = target: Beta-lactamase (Pseudomonas aeruginosa, UniProt Q79MP6);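 also: biochemical dose-response test of metallo-beta-lactamase enzyme inhibition, read out by epi-absorbance; purified recombinant IMP-1 metallo-beta-lactamase with nitrocefin as substrate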
Beta-lactamase [2] = target: Beta-lactamase (Salmonella choleraesuis (strain SC-B67), UniProt Q5J463)
HeLa = test: HeLa cell cytotoxicity, dose response, cytotoxicity control, 24 h, cherry-picked samples (AID 504726); format: functional, cell-based; conditions: Homo sapiens;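 also: potency for cytotoxicity as loss of luminescence signal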
[3] = target: Dual specificity tyrosine-phosphorylation-regulated kinase 1A (Rattus norvegicus, UniProt Q63470); format: biochemical, Homo sapiens
[4] = target: T1, Histone-lysine N-methyltransferase NSD2 (Homo sapiens, UniProt O96028); format: biochemical
T1 sequence (O96028 whole entry): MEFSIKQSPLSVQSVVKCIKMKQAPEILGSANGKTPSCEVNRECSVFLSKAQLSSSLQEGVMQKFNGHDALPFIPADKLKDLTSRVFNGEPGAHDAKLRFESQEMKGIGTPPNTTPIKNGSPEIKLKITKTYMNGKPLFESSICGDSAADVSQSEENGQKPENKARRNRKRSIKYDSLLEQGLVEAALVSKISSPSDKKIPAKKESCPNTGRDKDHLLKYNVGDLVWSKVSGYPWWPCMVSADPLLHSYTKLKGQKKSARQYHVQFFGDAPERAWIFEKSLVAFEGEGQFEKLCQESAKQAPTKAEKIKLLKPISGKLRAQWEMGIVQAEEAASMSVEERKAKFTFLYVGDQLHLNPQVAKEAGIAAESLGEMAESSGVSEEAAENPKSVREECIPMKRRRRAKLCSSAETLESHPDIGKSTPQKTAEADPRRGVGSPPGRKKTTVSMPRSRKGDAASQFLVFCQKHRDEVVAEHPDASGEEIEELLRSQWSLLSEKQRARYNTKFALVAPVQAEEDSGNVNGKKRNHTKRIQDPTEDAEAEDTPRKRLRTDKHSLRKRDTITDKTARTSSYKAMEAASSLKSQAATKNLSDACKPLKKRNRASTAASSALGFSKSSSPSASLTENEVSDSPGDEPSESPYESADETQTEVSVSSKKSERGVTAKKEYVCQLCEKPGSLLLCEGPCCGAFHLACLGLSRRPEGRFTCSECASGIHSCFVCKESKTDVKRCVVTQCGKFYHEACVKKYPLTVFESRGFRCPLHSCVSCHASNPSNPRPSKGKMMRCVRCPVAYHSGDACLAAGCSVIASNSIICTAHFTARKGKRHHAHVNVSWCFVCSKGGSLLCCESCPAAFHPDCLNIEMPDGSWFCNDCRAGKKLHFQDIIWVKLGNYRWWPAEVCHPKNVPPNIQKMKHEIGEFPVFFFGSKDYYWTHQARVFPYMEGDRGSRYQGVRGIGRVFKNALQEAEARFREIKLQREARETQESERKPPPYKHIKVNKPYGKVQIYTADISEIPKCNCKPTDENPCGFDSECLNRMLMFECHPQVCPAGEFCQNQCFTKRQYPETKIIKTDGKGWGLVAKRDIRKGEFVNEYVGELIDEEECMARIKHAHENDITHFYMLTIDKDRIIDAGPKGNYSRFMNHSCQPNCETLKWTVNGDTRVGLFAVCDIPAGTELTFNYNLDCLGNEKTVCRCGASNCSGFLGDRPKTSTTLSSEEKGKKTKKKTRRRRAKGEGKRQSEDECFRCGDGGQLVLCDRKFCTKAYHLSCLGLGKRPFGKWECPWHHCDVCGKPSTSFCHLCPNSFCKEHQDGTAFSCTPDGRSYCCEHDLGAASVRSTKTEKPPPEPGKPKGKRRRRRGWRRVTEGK

[5] = NIH-3T3 fibroblast cytotoxicity, dose response, cytotoxicity control, cell-based, fluorescence, Alamar Blue, secondary assay (AID 2327); format: functional;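 also: NIH-3T3 mouse fibroblasts cultured with fluconazole at 8 µg/mL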
[6] = tested on: Streptococcus sp. 'group A'; test: growth inhibition of control SK(-) GAS strain, dose response, counter-screen for streptokinase expression inhibitor project, luminescence, kanamycin, BacTiterGlo, confirmation (AID 1900); format: functional, organism-based
cells = format: functional, cell-based
[7] = Luminescence Cell-Based Dose Response HTS to Identify Inhibitors of 5'UTR Stem-Loop Driven Prion Protein mRNA Translation in H4 Neuroglioblastoma Cells. [Related pubchem assays: 1827 (Project Summary), 1813 (Primary HTS)]; format: functional
Streptokinase A = target: T2, Streptokinase A (Streptococcus pyogenes serotype M1, UniProt P10520); test: S. pyogenes streptokinase expression inhibitors, potency, dose response, plasminogen activation absorbance, OD405 (AID 1914); format: functional, Streptococcus pyogenes M1 GAS;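 also: secreted streptokinase activity via plasminogen activation per viability signal from cell pellet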
T2 sequence (P10520 whole entry): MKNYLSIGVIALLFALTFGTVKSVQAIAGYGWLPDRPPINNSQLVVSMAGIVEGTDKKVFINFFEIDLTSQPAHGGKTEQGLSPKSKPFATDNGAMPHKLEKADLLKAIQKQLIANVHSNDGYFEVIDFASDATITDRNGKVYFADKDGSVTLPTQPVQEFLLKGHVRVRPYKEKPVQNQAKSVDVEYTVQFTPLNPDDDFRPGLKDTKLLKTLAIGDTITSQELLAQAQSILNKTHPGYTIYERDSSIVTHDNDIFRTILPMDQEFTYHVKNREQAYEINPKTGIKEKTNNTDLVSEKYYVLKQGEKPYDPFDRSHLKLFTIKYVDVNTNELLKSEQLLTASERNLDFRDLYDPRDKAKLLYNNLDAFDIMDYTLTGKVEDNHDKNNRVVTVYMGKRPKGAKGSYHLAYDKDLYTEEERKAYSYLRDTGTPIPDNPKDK

[8] = Counterscreen for AddAB inhibitors: absorbance-based bacterial cell-based high throughput dose response assay for inhibitors of bacterial viability. [Related pubchem assays (depositor defined):AID435030, AID449728, AID449731, AID488942, AID488955, AID488956]; format: functional
Phospholipase A2 [9] = target: T3, Phospholipase A2 (Homo sapiens, UniProt P04054); test: PLA2 enzyme inhibitors, dose response, counter-screen for ATG4B inhibitor project, biochemical, set 2 (AID 588586); format: functional
Phospholipase A2 [10] = target: T3, Phospholipase A2; format: functional
INS1 = test: beta cell apoptosis inhibitors, cytokine rescue, dose response, luminescence, retest (AID 449756); format: functional, cell-based; conditions: Rattus norvegicus;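 also: cell death triggered by IL-1 beta plus TNF-alpha plus IFN-gamma mixture; protective hits raise ATP signal compared with cytokine alone wells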
[11] = HEK293T cytotoxicity, dose response, cytotoxicity control for miR-122 modulator project, cell-based, activator set, cherry-pick (AID 720690); format: functional;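 also: HEK293T human cells scored for general mammalian cytotoxicity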
[12] = target: Guanyl-specific ribonuclease T1 (Aspergillus oryzae (strain ATCC 42149 / RIB 40), UniProt P00651); test: RNase T1 inhibitors, dose response, counter-screen for TPT1 inhibitor project, biochemical, fluorescence polarization, 1536-well (AID 2167)
Large T antigen = Large T antigen (Simian virus 40, UniProt P03070); format: functional, Betapolyomavirus macacae;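 also: Confirmatory-stage PubChem screen for compounds that inhibit SV40 T antigen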
[13] = target: Eukaryotic translation initiation factor 4E (Mus musculus, UniProt P63073); test: eIF4E–eIF4G protein interaction inhibitors, dose response, biochemical, TR-FRET (AID 855); format: functional;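 also: potency for disrupting eIF4E binding to eIF4GI seen as loss of FRET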
Eukaryotic translation initiation factor 4E, sequence (P63073 whole entry): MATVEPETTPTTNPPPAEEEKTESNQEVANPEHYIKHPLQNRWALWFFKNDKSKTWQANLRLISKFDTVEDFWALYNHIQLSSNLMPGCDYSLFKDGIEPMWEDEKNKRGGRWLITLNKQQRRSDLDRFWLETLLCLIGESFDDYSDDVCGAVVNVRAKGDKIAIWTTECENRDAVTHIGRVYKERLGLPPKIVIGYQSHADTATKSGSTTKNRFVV

T3 sequence (P04054 whole entry): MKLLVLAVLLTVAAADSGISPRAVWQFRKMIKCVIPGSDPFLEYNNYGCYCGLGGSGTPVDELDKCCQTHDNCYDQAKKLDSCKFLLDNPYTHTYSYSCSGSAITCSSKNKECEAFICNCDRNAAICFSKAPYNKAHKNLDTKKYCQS
Large T antigen, sequence (P03070 whole entry): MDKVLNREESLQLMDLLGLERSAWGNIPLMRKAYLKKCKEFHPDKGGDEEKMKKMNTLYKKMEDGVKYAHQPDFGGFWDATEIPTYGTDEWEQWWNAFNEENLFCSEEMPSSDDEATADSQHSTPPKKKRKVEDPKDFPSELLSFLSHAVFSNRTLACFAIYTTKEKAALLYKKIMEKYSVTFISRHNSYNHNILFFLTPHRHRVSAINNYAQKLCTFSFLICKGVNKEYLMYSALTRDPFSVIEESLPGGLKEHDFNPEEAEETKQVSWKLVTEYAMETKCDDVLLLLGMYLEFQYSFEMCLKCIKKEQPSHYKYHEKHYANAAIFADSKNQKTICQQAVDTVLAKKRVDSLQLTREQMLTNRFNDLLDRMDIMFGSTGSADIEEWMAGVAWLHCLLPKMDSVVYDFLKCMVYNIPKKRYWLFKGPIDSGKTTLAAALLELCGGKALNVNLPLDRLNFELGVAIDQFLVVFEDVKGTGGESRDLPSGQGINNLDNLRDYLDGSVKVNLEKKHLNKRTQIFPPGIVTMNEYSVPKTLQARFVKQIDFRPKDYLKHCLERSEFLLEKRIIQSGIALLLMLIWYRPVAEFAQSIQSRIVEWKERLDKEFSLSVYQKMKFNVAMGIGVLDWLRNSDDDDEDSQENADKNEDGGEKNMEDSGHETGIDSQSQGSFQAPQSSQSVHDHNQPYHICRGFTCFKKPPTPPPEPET
Beta-lactamase (Pseudomonas aeruginosa, UniProt Q79MP6), sequence (Q79MP6 whole entry): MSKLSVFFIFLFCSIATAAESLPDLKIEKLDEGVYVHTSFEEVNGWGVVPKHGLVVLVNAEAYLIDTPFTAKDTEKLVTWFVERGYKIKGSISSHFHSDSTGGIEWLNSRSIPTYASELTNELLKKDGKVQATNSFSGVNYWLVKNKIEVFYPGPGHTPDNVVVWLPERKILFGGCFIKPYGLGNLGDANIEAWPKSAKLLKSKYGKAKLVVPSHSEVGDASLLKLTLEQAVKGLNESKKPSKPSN
Guanyl-specific ribonuclease T1, sequence (P00651 whole entry): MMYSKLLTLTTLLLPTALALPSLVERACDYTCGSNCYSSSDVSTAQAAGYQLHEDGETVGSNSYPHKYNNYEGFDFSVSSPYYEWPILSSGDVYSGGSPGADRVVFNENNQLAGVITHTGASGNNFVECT
Beta-lactamase (Salmonella choleraesuis (strain SC-B67), UniProt Q5J463), sequence (Q5J463 whole entry): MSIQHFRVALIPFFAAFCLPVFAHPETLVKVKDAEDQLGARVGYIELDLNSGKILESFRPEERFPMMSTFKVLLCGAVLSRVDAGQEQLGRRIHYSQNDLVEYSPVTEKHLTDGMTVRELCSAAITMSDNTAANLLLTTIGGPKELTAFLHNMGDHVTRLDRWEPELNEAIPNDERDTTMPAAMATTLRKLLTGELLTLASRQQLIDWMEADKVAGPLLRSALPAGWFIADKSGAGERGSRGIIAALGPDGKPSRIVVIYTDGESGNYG

O=C1CCN2C=Nc3cccc4ccc1c2c34
IC50 (Beta-lactamase [1]): 11.8 µM (inactive)
IC50 (Beta-lactamase [2]): 7.55 µM (active)
AC50 (HeLa): 20.2 µM (active)
AC50 [3]: 3 µM (active)
AC50 [4]: 9.91 µM (active)

Oc1ccc2ccccc2c1/C=N/Nc1nnc(-c2ncc[nH]2)c2ccccc12
EC50 [5]: 11.4 µM (active)
EC50 [6]: 1.98 µM (active)
EC50 (cells): 82.8 µM (active)
EC50 [7]: 0.292 µM (active)
EC50 (Streptokinase A): 5.52 µM (active)
IC50 [8]: > 119 µM (inactive)
IC50 (Phospholipase A2 [9]): 2.47 µM (active)
IC50 (Phospholipase A2 [10]): 1.51 µM (active)
AC50 (INS1): 0.424 µM (active)
AC50 [11]: 3.09 µM (active)

CC(C)C(C(=O)O)N1C(=O)/C(=C/C=C/c2ccco2)SC1=S (stereo not drawn)
IC50 [12]: 9.85 µM (active)
IC50 (Large T antigen): 24.6 µM (active)
IC50 [13]: 11.3 µM (active)
